pIC50: −log10 of the molar value. In brackets after ≈: the same amount, converted by molar mass.
What was measured:
[1] = molecular target: Tyrosine-protein kinase JAK2 (Homo sapiens, UniProt O60674); assay: Inhibition of JAK2 (unknown origin)
[2] = molecular target: T1, Tyrosine-protein kinase JAK3 (Homo sapiens, UniProt P52333); assay: Inhibition of JAK3 (unknown origin)
T1 sequence (P52333 whole entry): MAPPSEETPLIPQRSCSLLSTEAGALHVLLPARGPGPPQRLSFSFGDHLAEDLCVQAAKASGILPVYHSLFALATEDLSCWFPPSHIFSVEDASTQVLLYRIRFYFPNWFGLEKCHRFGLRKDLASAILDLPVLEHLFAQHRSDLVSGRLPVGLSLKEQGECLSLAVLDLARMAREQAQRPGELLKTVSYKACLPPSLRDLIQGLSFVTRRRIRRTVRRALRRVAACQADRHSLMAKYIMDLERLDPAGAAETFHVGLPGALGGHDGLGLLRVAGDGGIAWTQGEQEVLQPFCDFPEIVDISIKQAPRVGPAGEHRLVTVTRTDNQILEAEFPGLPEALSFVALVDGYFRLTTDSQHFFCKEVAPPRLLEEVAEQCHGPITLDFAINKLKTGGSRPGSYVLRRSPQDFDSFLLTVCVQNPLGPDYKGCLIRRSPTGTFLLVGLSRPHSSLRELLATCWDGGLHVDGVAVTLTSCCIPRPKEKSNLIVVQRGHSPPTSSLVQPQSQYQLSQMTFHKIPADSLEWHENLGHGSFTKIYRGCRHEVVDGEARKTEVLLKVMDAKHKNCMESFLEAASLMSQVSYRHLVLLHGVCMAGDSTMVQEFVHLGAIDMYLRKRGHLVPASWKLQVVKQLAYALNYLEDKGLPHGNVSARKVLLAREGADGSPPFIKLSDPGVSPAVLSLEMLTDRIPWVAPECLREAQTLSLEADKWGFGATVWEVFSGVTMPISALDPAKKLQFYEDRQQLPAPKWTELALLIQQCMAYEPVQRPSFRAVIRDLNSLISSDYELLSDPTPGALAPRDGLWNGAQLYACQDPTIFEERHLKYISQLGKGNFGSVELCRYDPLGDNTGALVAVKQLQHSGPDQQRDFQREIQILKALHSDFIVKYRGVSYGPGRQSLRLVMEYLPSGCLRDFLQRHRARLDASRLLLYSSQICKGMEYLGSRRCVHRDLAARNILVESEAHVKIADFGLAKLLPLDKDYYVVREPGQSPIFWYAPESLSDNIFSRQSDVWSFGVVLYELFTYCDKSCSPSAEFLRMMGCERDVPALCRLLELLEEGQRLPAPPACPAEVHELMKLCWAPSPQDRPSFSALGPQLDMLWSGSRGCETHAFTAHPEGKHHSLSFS

HT-29 [3] = assay: Antiproliferative activity against human HT-29 cells assessed as inhibition of cell growth by SRB assay; type: functional, cell-based
HT-29 [4] = assay: Potency index, ratio of tirapazamine IC50 to compound IC50 for antiproliferative activity against human HT-29 cells; type: functional
[5] = molecular target: Cyclin-dependent kinase 2/cyclin E (Homo sapiens, UniProt P24941); assay: Inhibition of CDK2/cyclin E (unknown origin); type: protein-complex assay
HCT-116 = assay: Antiproliferative activity against human HCT-116 cells assessed as inhibition of cell growth; type: functional, cell-based
MCF7 = assay: Antiproliferative activity against human MCF7 cells assessed as inhibition of cell growth; type: functional, cell-based
[6] = molecular target: Cyclin-dependent kinase 2/cyclin E1 (Homo sapiens, UniProt P24941); assay: Inhibition of CDK2/cyclin E1 (unknown origin) expressed in Sf9 cells
[7] = molecular target: T2, Tyrosine-protein kinase SYK (Homo sapiens, UniProt P43405); assay: Inhibition of human SYK using 5-Fluo-Ahx-GAPDYENLQELNKK-Amid as substrate in presence of ATP by microfluidic mobility shift assay
[8] = molecular target: T2, Tyrosine-protein kinase SYK; assay: Inhibition of SYK in human Ramos cells assessed as reduction in anti IgM-induced phosphorylation of BLNK by flow cytometry assay; type: cell-based

Sequence of Tyrosine-protein kinase JAK2 (O60674 whole entry): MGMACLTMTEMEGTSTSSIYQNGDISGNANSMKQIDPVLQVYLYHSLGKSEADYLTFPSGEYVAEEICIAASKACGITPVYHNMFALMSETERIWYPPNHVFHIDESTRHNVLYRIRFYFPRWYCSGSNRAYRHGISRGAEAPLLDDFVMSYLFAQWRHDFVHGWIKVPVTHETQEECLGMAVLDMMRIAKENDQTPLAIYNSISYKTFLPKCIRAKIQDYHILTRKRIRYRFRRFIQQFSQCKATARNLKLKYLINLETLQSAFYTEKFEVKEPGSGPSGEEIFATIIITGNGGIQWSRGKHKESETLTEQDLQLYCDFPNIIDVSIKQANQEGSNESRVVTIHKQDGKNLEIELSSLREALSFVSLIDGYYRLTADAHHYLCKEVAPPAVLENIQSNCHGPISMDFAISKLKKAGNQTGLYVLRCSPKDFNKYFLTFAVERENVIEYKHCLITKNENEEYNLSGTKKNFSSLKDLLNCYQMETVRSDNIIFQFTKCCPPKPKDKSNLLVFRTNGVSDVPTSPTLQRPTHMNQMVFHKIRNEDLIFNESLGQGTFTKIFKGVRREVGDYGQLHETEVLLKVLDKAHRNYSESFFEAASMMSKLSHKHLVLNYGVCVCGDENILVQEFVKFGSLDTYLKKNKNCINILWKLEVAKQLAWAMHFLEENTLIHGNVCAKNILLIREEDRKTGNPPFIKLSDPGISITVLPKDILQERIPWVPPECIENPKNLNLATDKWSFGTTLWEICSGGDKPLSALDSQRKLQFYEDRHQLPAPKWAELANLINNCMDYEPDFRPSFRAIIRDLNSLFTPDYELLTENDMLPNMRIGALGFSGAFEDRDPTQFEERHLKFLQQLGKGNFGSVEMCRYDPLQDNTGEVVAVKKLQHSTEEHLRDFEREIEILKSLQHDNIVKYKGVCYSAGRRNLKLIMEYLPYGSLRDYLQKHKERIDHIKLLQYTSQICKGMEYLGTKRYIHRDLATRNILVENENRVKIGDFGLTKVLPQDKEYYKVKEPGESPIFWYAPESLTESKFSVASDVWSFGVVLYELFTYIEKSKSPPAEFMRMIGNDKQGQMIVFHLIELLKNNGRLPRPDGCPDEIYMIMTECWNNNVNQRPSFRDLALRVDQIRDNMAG

With `CC(C)(C)CNC(=O)C(C)(C)Nc1cnnc(-c2c[nH]c3ncc(C#N)cc23)n1` as the compound, how does the pIC50 [1] read?
Its pIC50 is at least 8.00.

What about the pIC50 [2] of the same compound?
The pIC50 was at least 8.00.

How did the pIC50 (HT-29 [3]) turn out when `CCc1nc2ccccc2[n+]([O-])n1` was run?
The pIC50 was under 5.52.

And the “Ratio IC50” value (HT-29 [4])?
The value was 1.3.

What does the source list for `CN(C)CCNc1nc2ccccc2[n+]([O-])n1`?
pIC50 (HT-29 [3]): < 6.00; Ratio IC50 (HT-29 [4]): 3.9

How did the pIC50 [1] turn out when `CC(C)C(Nc1cnnc(-c2c[nH]c3ncc(C(N)=O)cc23)n1)C(=O)NCC(C)(C)C` (stereo not given) was run?
The pIC50 was at least 8.00.

What about the pIC50 [2] of the same compound?
The pIC50 was at least 8.00.

`Cc1n[nH]c(=S)n(-c2nnc(-c3ccc(F)cc3)c(-c3ccc(F)cc3)n2)c1=O` was tested. Which pIC50 [5] did it give?
The pIC50 was 5.01.

`CC(Nc1cnnc(-c2c[nH]c3ncc(C#N)cc23)n1)C(=O)NCC(C)(C)C` (stereo not given) was tested. Which pIC50 [1] did it give?
Its pIC50 is at least 8.00.

And the pIC50 [2]?
The pIC50 was at least 8.00.

What does the source list for `COc1cc(Cc2nc(-c3ccc(Cl)cc3)nn3c(=S)[nH]nc23)cc(OC)c1OC`?
IC50 (HCT-116): 0.74 µg/mL; IC50 (MCF7): 0.74 µg/mL (≈ 1.67 µM)

`Nc1ccc(F)cc1C1=NNC(Nc2ccc(F)cc2)NC1=O` (stereo not given) was tested. Which pIC50 [5] did it give?
Its pIC50 is 5.42.

`CNc1ccc(F)cc1C1=NNC(SC)NC1=O` (stereo not given) was tested. Which pIC50 [5] did it give?
Its pIC50 is 5.30.

How did the pIC50 (HT-29 [3]) turn out when `CN(C)CCCNc1nc2ccccc2[n+]([O-])n1` was run?
Its pIC50 is 6.08.

What about the “Ratio IC50” value (HT-29 [4]) of the same compound?
Its value is 1.2.

With `COc1nc2ccccc2[n+]([O-])n1` as the compound, how does the pIC50 (HT-29 [3]) read?
The pIC50 was under 6.52.

And the “Ratio IC50” value (HT-29 [4])?
Its value is 3.3.

How did the pIC50 (HT-29 [3]) turn out when `CNCCNc1nc2ccccc2[n+]([O-])n1` was run?
Its pIC50 is 5.64.

What about the “Ratio IC50” value (HT-29 [4]) of the same compound?
The value was 6.11.

With `CSC1NN=C(c2cc(F)ccc2NC(=O)c2ccc(F)cc2)C(=O)N1` (stereo not given) as the compound, how does the pIC50 [5] read?
The pIC50 was 5.42.

How did the pIC50 [1] turn out when `CC(C)(C)CNC(=O)C(C)(C)Nc1cnnc(-c2c[nH]c3ncc(C(N)=O)cc23)n1` was run?
The pIC50 was at least 8.00.

What about the pIC50 [2] of the same compound?
The pIC50 was at least 8.00.

What does the source list for `[O-][n+]1nc(CCO)nc2ccccc21`?
pIC50 (HT-29 [3]): < 5.52; Ratio IC50 (HT-29 [4]): 1.2

With `Oc1cccc(-n2nc(-c3cc(O)c(O)c(O)c3)c3nc(-c4ccccc4)nnc32)c1` as the compound, how does the pIC50 [6] read?
The pIC50 was 5.28.

With `O=C1NC(SSC2NN=C(c3cc(F)ccc3NC(=O)c3ccc(F)cc3)C(=O)N2)NN=C1c1cc(F)ccc1NC(=O)c1ccc(F)cc1` (stereo not given) as the compound, how does the pIC50 [5] read?
Its pIC50 is 5.42.

With `Nc1ccc(F)cc1C1=NNC(S)NC1=O` (stereo not given) as the compound, how does the pIC50 [5] read?
Its pIC50 is 5.42.

How did the pIC50 [5] turn out when `NNC(=S)Nc1nnc(-c2ccc(F)cc2)c(-c2ccc(F)cc2)n1` was run?
Its pIC50 is 4.95.

With `Oc1ccccc1-n1nc(-c2cc(O)c(O)c(O)c2)c2nc(-c3ccccc3)nnc21` as the compound, how does the pIC50 [6] read?
Its pIC50 is 4.82.

How did the pIC50 [5] turn out when `Fc1ccc(-c2nnc(-n3c(=S)[nH][nH]c3=S)nc2-c2ccc(F)cc2)cc1` was run?
Its pIC50 is 5.00.

With `CC(C)C(Nc1cnnc(-c2c[nH]c3ncc(C#N)cc23)n1)C(=O)NCC(C)(C)C` (stereo not given) as the compound, how does the pIC50 [1] read?
Its pIC50 is at least 8.00.

What about the pIC50 [2] of the same compound?
The pIC50 was at least 8.00.

For `COc1cc(-c2csc3nnc(-c4ccc(Cl)cc4)nc23)cc(OC)c1OC`, which IC50 (HCT-116) is on record?
Its IC50 is 0.74 µg/mL.

And the IC50 (MCF7)?
Its IC50 is 0.74 µg/mL (≈ 1.79 µM).

How did the pIC50 [5] turn out when `Fc1ccc(-c2nnc(-n3cn[nH]c3=S)nc2-c2ccc(F)cc2)cc1` was run?
Its pIC50 is 4.96.

How did the pIC50 [1] turn out when `COc1cnc2[nH]cc(-c3nncc(NC(C(=O)NCC(C)(C)C)C(C)C)n3)c2c1` (stereo not given) was run?
Its pIC50 is at least 8.00.

And the pIC50 [2]?
The pIC50 was at least 8.00.

How did the pIC50 [6] turn out when `COc1cc(-c2nnc3c(n2)c(-c2cc(O)c(O)c(O)c2)nn3-c2cc(OC)c(OC)c(OC)c2)cc(OC)c1OC` was run?
Its pIC50 is 5.35.

`CN1CCN(CC(=O)Nc2cc(C(=O)Nc3ncc(-c4ccccc4)nn3)ccc2OC(F)(F)F)CC1` was tested. Which pIC50 (HCT-116) did it give?
The pIC50 was 7.80.

What does the source list for `CC(Nc1cnnc(-c2c[nH]c3ncc(C(N)=O)cc23)n1)C(=O)NCC(C)(C)C` (stereo not given)?
pIC50 [1]: ≥ 8.00; pIC50 [2]: ≥ 8.00

With `N#Cc1c[nH]c2c(Nc3nc(N[C@@H]4CCCCC4N)nnc3C(N)=O)cccc12` (single isomer, unassigned) as the compound, how does the pIC50 [7] read?
The pIC50 was 9.10.

And the pIC50 [8]?
The pIC50 was 7.85.

Source: ChEMBL document CHEMBL5260813, “An overview on the recent developments of 1,2,4-triazine derivatives as anticancer compounds” (Eur J Med Chem, 2017)
